Measurements from the NIST ThermoML archive (doi:10.1021/je200226z).
Numbers after ± are expanded uncertainties.

Assay: mn = molality of the nth substance listed, in mol/kg
Conditions: 298.15 K, 101 kPa, Liquid, Westphal Balance

mass density (m1 = 0.02) [kg/m3] | mass density (m1 = 0.06) [kg/m3] | mass density (m1 = 0.1) [kg/m3] | mass density (m1 = 0.15) [kg/m3] | mass density (m1 = 0.2) [kg/m3] | mass density (m1 = 0.25) [kg/m3] | mass density (m1 = 0.05) [kg/m3] | mass density (m1 = 0.5) [kg/m3] | mass density (m1 = 0.75) [kg/m3] | mass density (m1 = 1) [kg/m3] | Compound
999.72 ± 0.14 | 1004.87 ± 0.14 | 1009.9 ± 0.14 | 1016.06 ± 0.14 | 1022.12 ± 0.14 | 1027.95 ± 0.14 | – | – | – | – | OC[C@H]1O[C@@](CO)(O[C@H]2O[C@H](CO)[C@@H](O)[C@H](O)[C@H]2O)[C@@H](O)[C@@H]1O [D-sucrose] + O
– | – | 999 ± 0.14 | 999.8 ± 0.14 | – | 1001.3 ± 0.14 | 998.1 ± 0.14 | 1004.8 ± 0.14 | 1007.8 ± 0.13 | 1010.3 ± 0.12 | C=CCn1cc[n+](C)c1.[Cl-] [1-allyl-3-methylimidazolium chloride] + O
